Residues, ends and D or L forms follow the SMILES beside them. *: point of attachment. Cbz = O=C(OCc1ccccc1)*

`COc1ccc(-c2c(NC(=O)Nc3ccc(F)cc3F)c(=O)oc3ccc(Cl)cc23)cc1OC` had a melting point of 267 to 270 °C.
The figure for `C[C@@H](N1CCN(c2ccc(OCC(F)(F)C(F)(F)F)cc2)C1=O)[C@@]1(c2ccc(F)cc2F)CO1` is 141 to 144 °C; for `CN(C)c1ccc(NC(=O)N(C[C@@H]2CCC[C@H](CN(C(=O)Nc3ccc(N(C)C)cc3)C3CCCCCCC3)C2)C2CCCCCCC2)cc1` it is 147 to 149 °C.
The figure for `C[C@@H](SCCCO)[C@](O)(Cn1cncn1)c1ccc(F)cc1F` (relative stereo) is 119 to 120 °C; for `Cc1ccc(C)c(OCCCC(C)(C)C(=O)Nc2cccc(C(=O)O)c2)c1` it is 161 °C.
`COc1ccnc(CSc2nc3cc(OC(F)(F)F)ccc3[nH]2)c1` registered a melting point of 134 to 135 °C.
Then `COC(=O)C(CCC(C(=O)OC)c1cc(OC)c(OC)c(OC)c1)c1cc(OC)c(OC)c(OC)c1` (stereo not drawn), with 179 to 184 °C.
In the case of `CN1C(=O)OC[C@@H]1Cc1ccc([N+](=O)[O-])cc1`, the melting point was 146 to 147 °C.
The figure for `COc1ccccc1C=CCN1CCc2nc(N)sc2CC1` is 80 to 84 °C; for `CN(Cc1ccccc1)C(=O)c1cnc2c([N+](=O)[O-])cccc2c1Cl` it is 120 to 121 °C.
The compound `CCN(CC)CCOCCC1CCCCN1C(=O)N1c2ccccc2NC(=O)c2csc(C)c21` (stereo not drawn) yielded a melting point of 105 to 107 °C.
Then `Cn1ncc(C(=O)Nc2ccc(F)cc2Cl)c1N`, with 176 to 177 °C.
In turn, `COc1ccc(C2CC(=O)N(c3ccncc3)C2=O)cc1` (stereo not drawn) came in with a melting point of 179 to 180 °C.
Then `CCOC(=O)C1=C(N)NC(N)=C(C(=O)OCC)C1c1cccc(C#N)c1`, with 176 °C.
Then `CCCCCCCCCCCCCCCCCC(=O)ON1C(=O)c2ccccc2C1=O`, with 76 to 80 °C.
Then `Cn1ncc(C(=O)N2CCOCC2)c1C(=O)Nc1ccc2nc(-c3ccccc3)nn2c1`, with 183 to 185 °C; and `O=C1c2ccccc2C(=O)N1Cc1cc2cc(Cl)cc(-c3ccccc3)c2o1`, with 163 to 166 °C.
The compound `COc1ccc2c(c1)C(C(=O)N(Cc1ccc(Cl)cc1)c1ccc(C(C)C)cc1)CCC2` (stereo not drawn) had a melting point of 87 to 88 °C.
The figure for `OC(COc1ccccc1-n1cccc1)CN1CCOCC1` (stereo not drawn) is 81 to 82 °C; for `CC(C)c1ccc2nc3ccc(C(=O)NCCc4cccnc4)cn3c(=O)c2c1` it is 283 to 292 °C.
The figure for `COc1ccc(CNc2n[nH]c3ncnc(Nc4cccc(Cl)c4)c23)cc1Cl` is 205 to 208 °C.
The figure for `COC(=O)COc1ccc(OC)cc1C=O` is 74 to 75 °C.
As to `C[C@@H]1CN(C(=O)OC(C)(C)C)Cc2cc3cc(Br)c(F)cc3n21`, the melting point fell in the range of 116 to 118 °C.
Then `Nc1nc(OC(F)(F)F)cc(C(F)(F)F)n1`, with 47 to 49 °C; and `CC(C)(C)C(O)c1ccc(CO)cc1` (stereo not drawn), with 91 to 95 °C.
The figure for `Nc1cc(Cl)cc(Cl)c1I` is 61 to 63 °C; for `CCCCCCCCCCNC1=CC(=O)c2c(OC)ccc(OC)c2C1=O` it is 86 to 87 °C.
Then `O=C1CCC(N2Cc3c(OCc4cccc(CN5CCC(c6ccc(F)cc6F)CC5)c4)cccc3C2=O)C(=O)N1` (stereo not drawn), with 211 to 213 °C.
As to `C=CCN(CC=C)Cc1noc(-c2ncn3c2CN(C)C(=O)c2ccccc2-3)n1`, the melting point was in the range of 203 to 205 °C.
Then `Cc1nnnn1C(C=CC=O)=C(c1ccc(F)cc1)c1ccc(F)cc1`, with 72 to 78 °C.
On to `COc1cc2c(=O)c(-c3ccc(O)cc3)coc2cc1O`, for which the melting point is 336 to 338 °C.
Then `C[C@@H](n1cnc2cc(S(=O)(=O)c3ccccc3)ccc2c1=O)[C@](O)(Cn1cncn1)c1ccc(F)cc1F`, with 125 to 130 °C; and `Cn1ncnc1COc1nn2c(-c3cc(CF)on3)nnc2c2ccccc12`, with 250 to 252 °C; and `Cc1nc2cccc(Cl)c2c(=O)o1`, with 149 °C.
The figure for `CCn1cc(C(=O)NCc2ccc(Cl)cc2)c(=O)c2cc(CCCCO)sc21` is 136 to 139 °C; for `CCCn1c(=O)nc(Sc2ccc(Cl)cc2)sc1=S` it is 151 to 152 °C; for `CCCCC(=O)N(C(=O)NC(=O)c1ccccc1[N+](=O)[O-])c1ccc(Oc2ncc(Cl)cn2)c(C)c1` it is 69 to 75 °C.
Then `COc1cccc(C2CCC(O)O2)c1` (stereo not drawn), with 76.5 to 78 °C.
In the case of `Clc1ccccc1C(Cl)(c1ccccc1)c1ccccc1`, the melting point is 131 °C.
Then `CC(C)Nc1nc2cc(C#N)ccc2[nH]1`, with 185 to 190 °C; and `Cc1ccc(-c2ccccc2-c2nnnn2-c2ccc([N+](=O)[O-])cc2)cc1`, with 164 to 166 °C; and `COc1ccc(CC(C(=O)n2ccnc2)C(C)(C)C)cc1` (stereo not drawn), with 89.5 to 91 °C.
Then `O=Cc1ccccc1C(=O)c1ccc(Cl)cc1`, with 112 to 113 °C; and `COc1cc(C=O)cc(OC)c1OCc1ccc([N+](=O)[O-])cc1`, with 148 to 149 °C; and `COC(=O)C1Cc2cc(OC)ccc2N1` (racemic), with 59 to 61 °C.
The figure for `COc1cc(OC)c2c(=O)cc(-c3cccc(C)c3)oc2c1C1=CCN(C)CC1` is 109 to 110 °C; for `CCc1nc2cnc3cc(Br)cnc3c2n1CC(C)(C)O` it is 207 to 208 °C.
For `N#Cc1c(SSc2ccc([N+](=O)[O-])cc2C(Cl)(Cl)Cl)ccc2ccccc12`, the melting point was 170 °C.
Compound `CC(C)n1nc(-c2cc(C(N)=O)c(N)nc2-c2ccccc2)ccc1=O` came in with a melting point of over 250 °C.
The figure for `CCn1c(=O)c2[nH]c(/C=C/c3ccc(N(C)C)cc3)nc2n(CC)c1=O` is over 300 °C; for `COC(=O)c1cc(-c2ccc(OC)c(OC)c2)nn(CC2CC2)c1=O` it is 136 to 137 °C.
On to `CCOC(=O)c1ccc2c(c1)CCC(=Cc1cccnc1)C2=O`, for which the melting point was in the range of 112 to 114 °C.
The figure for `N#Cc1ccccc1C=CCN1CCc2nc(N)sc2CC1` is 140 to 144 °C; for `CN(C)N1C(=O)C(Cc2ccncc2)(Cc2ccncc2)c2ccccc21` it is 190 to 193 °C.
The figure for `COC(=O)C(Cc1c[nH]c2ccccc12)NC(=O)C(CCC(N)=O)NC(=O)OCc1ccccc1` (stereo not drawn) (Cbz-Gln-Trp-OMe; configuration not given here) is 197 to 198 °C.
Then `CC(C)OC(=O)Nc1cc(-c2ccnc3c(C(=O)c4cccs4)cnn23)ccc1N(C)C`, with 164 to 165 °C.
`O=C1CC=C(c2ccccc2Cl)c2cc(Cl)ccc2N1`: the melting point was 171 °C.
The figure for `COc1cc(CN2CC[C@H](O)C2)ccc1-c1nc2c(N[C@H]3[C@@H](C(N)=O)[C@@H]4C=C[C@H]3C4)c(Cl)cnc2[nH]1` is 205 to 208 °C.
In turn, `CC(C)(C)OC(=O)N1CCN(C(=O)OC(C)(C)C)C1=S` showed a melting point of 117 to 118 °C.
Regarding `COc1c(C=O)c(C)cc2c1C(C)(C)CCC2(C)C`, the melting point was found to be 78 °C.
With `CC(C)c1[nH]nc2c1C(=O)c1c(NC(=O)CN3CCC(CN)CC3)cccc1-2`, the melting point was in the range of 218 to 220 °C.
Then `O=C(c1cccs1)C(O)c1ccc(F)cc1` (stereo not drawn), with 90 to 92 °C; and `NCC1CCN(C(c2ccccc2)c2ccccc2)CC1`, with 80 °C.
Then `CN(C)S(=O)(=O)c1ccc(Br)cc1OC(F)(F)F`, with 55 to 58 °C.
The figure for `O=C(Nc1nc(C(F)(F)C(F)(F)F)c(I)s1)c1cc(C(F)(F)F)cc(C(F)(F)F)c1` is 143 to 144 °C.
In turn, `CC1(C)CC(=O)c2c(C3CCCCC3)sc(C#N)c2C1` came in with a melting point of 129 to 132 °C.
The figure for `Cn1ccc(S(=O)(=O)NC(C)(C)C)c1` is 134 to 135 °C; for `CC(C)C[C@H](NC(=O)Cc1csc2ccccc12)C(=O)N[C@@H](Cc1ccccc1)C(=O)CSCc1ccco1` it is 150 to 153 °C.
Then `O=C(O)Cc1cc(C(=O)Cc2ccc(C(=O)O)cc2)ccc1O`, with over 260 °C.
Then `CCOc1cccc(NC(=O)N2CCc3cc(SC)c(C(F)(F)F)cc32)c1`, with 233 to 234 °C; and `COC(=O)NCCc1cccc(C(=O)C=CN(C)C)c1`, with 95 to 97 °C; and `CCOC(=O)Nc1c(OC)cc(Cc2cnc(N)nc2N)cc1OC`, with 192 to 193 °C.
As for `CNC(=O)c1cc(N2CCN(C)CC2)ncc1Br`, the melting point was in the range of 122 to 125 °C.
Compound `CC1C(S(=O)(=O)c2ccccc2)CCCC12OCCO2` (stereo not drawn) came in with a melting point of 76 to 77 °C.
`CC1CC(=O)NN=C1c1ccc(N2CCN(Cc3ccccc3)CC2)c([N+](=O)[O-])c1` (stereo not drawn) registered a melting point of 220 to 221 °C.
The compound `COC(=O)C(Cc1cccc(C2(OC)CCOCC2)c1)c1nc(-c2ccccc2)c(-c2ccc(S(N)(=O)=O)cc2)o1` (stereo not drawn) displayed a melting point of 88.7 to 94.9 °C.
Then `CNc1ncn(-c2c(Cl)cccc2Cl)c(=O)n1`, with 270 °C; and `COc1cc(-c2ccc3cc4c(cc3c2)C(C)(C)CCC4(C)C)ccc1C(=O)O`, with 177 to 178 °C.
Consider `COC(=O)CNc1cc2cc(OC)ccc2cc1OCc1ccccc1`, for which the melting point lay within 129 to 131 °C.
Compound `C=C(CCC)C(=O)c1ccc(OCC(=O)O)c(Cl)c1Cl` yielded a melting point of 111 to 113 °C.
`CCCCNC(=O)ON1C(C)(C)CC(OC(=O)c2ccccc2)CC1(C)C` yielded a melting point of 126 to 127 °C.
The figure for `Fc1ccc(-c2ccn(C3CCN(Cc4ccccc4)CC3)c2-c2ccncc2)cc1` is 132 to 139 °C; for `CCOC(=O)c1cc(Cc2ccccc2)c(O)c2ccccc12` it is 79 to 80 °C; for `CCCCNNc1nc(C)c(C(=O)OCC)c(Cl)c1[N+](=O)[O-]` it is 59 to 61 °C.
The figure for `OCC1=C(c2ccc3sccc3c2)N2CCN=C2S1` is 149 to 150 °C.
Then `Nc1nc(N)c2ncn(C3COC(CO)O3)c2n1` (single isomer, unassigned; (-)), with 237 to 239 °C.
For `CC1(C)CC(=O)c2cc(O)ccc2S1`, the melting point fell in the range of 135 to 142 °C.
`COc1ccc(Cc2ccc(C(=O)N(C3CCCC3)C3CCCC3)cc2)cc1OC`: the melting point fell in the range of 138 to 142 °C.

The values above are taken from a melting point compilation (Tetko et al.; mined from patent text by program, amines drawn as free bases though some values may be those of a salt).
